# Measured values taken from article PMC4466200 (Bioorganic & Medicinal Chemistry Letters, 2015).
# How the values were obtained:
# [1] = system: HSV-2; conditions: CD4+ T cells; McGuigan's ProTide technology employed; cited from earlier work
# [2] = system: HIV-1; conditions: CD4+ T cells; McGuigan's ProTide technology employed; cited from earlier work
# [3] = system: MERS-CoV (strain EMC/2012)
# [4] = system: SARS-CoV (strain Frankfurt-1); type: cell-based
# [5] = system: SARS-CoV or MERS-CoV; conditions: cited from earlier work
# [6] = system: other viruses; conditions: needed to inhibit other viruses; cited from earlier work
# [7] = system: coronavirus; conditions: coronavirus replication in vitro; cited from earlier work
# [8] = in vitro; conditions: human
SMILES,block of virus replication (in words) [3],block of virus replication (in words) [4],activity against SARS-CoV or MERS-CoV in vitro (in words) [5],also measured
"Nc1nc2c(ncn2COCCO)c(=O)[nH]1 [Acyclovir, acyclovir]",had no effect,had no effect,none of these well known antiviral drugs exhibited any activity,concentration suppressing replication [1]: 3 to 12 µmol/L; concentration suppressing replication [2]: 3 to 12 µmol/L
"NC(=O)c1ncn([C@@H]2O[C@H](CO)[C@@H](O)[C@H]2O)n1 [Ribavirin, ribavirin]",–,–,–,inhibitory concentration [6]: 50 to 100 µg/mL; inhibitory concentration [7]: 500 to 5000 µg/mL
COc1nc(N)ncc1-c1cn(COCCO)cn1 [compound 2],can block the replication of MERS-CoV,but not SARS-CoV,–,selectivity ratio [8]: > 3; EC50 [4]: No effect
Nc1nc(O)c2ncn(COC(CO)CO)c2n1 [ganciclovir],–,–,none of these well known antiviral drugs exhibited any activity,–
Nc1ccn([C@@H]2CS[C@H](CO)O2)c(=O)n1 [lamivudine],–,–,none of these well known antiviral drugs exhibited any activity,–
Cc1cn([C@H]2C[C@H](N=[N+]=[N-])[C@@H](CO)O2)c(=O)[nH]c1=O [zidovudine],–,–,none of these well known antiviral drugs exhibited any activity,–
